Series [1] in a line: Single-dose oral toxicity study in mice. Type of series: in vivo. Conditions: male ICR mice, suspension in 0.5% methylcellulose, conditions observed on the next day. On the procedure:
(§1) The compounds of Examples 2, 4 and 12 were used as test compounds.
10 mL/kg of a test compound suspended in 0.5% methylcellulose was orally administered to male ICR mice (6 week-old, one animal in a group).
On the next day after the administration, the conditions of the mice were observed.

Series [2] has as its system HIV-1 (JRCSF). The experiment in a line: Anti-HIV activity (Test Example 1-2): infected MaRBLE cells seeded on plate containing drug solution, luciferase readout after 7 days. Type of series: cell-based. Conditions: Human immunodeficiency virus 1, 168 h, MaRBLE cells infected with HIV-1 (JRCSF), 7 days culture, firefly luciferase, FORECAST linear regression (Excel). On the procedure:
(§2) This example was carried out by reference to Journal of Clinical Microbiology, 2007, Vol. 45, pages 477 to 487.
(§3) An anti-HIV activity was evaluated using MaRBLE cells obtained by transfection of HPB-M(a) derived from human T-lymphocytes with a luciferase gene of which expressions were regulated by HIV-1 LTR and a CCR5 gene etc.
A plate containing a drug solution was made by dispensing a fresh culture medium or an appropriately diluted test compound to a 96-well plate.
MaRBLE cells were suspended in RPMI1640 containing 10% FCS (fetal calf serum) and penicillin/streptomycin. After infected with HIV-1 (JRCSF), the cells were seeded on the above-described plate containing a drug solution ([…] cells/well). As a control group, the same number of uninfected cells were seeded.
After culturing at 37° C. under 5% CO2 for 7 days, an intracellular luciferase activity was measured using Dual-Glo Luciferase assay system (Promega).
(§4) The virus growth rate was calculated by the following equation.
(§5) Virus growth rate (%)=(A/B)×100
(§6) A=(Firefly luciferase activity in the well with the compound)−(Firefly luciferase activity of uninfected cells)
(§7) B=(Firefly luciferase activity in the well without the compound)−(Firefly luciferase activity of uninfected cells)
The IC50 of the compound was calculated by plotting the concentration with the logarithm and by plotting the virus growth rate with a real number, using the FORECAST function (linear regression technique) of Microsoft Office Excel 2003.

The subject of series [3] is bone marrow polychromatic erythrocytes. The experiment in a line: In vivo micronucleus study in mice. As to conditions: male ICR mice, oral twice at 24 hour interval, bone marrow 24 hours after final administration, highest dose group with all animals alive. On the procedure: as §1
A test compound suspended in 0.5% methylcellulose was orally administered to male ICR mice (8 week-old, three animals in a group) twice at a 24 hour interval. To a control group, 0.5% methylcellulose was orally administered in a similar manner.
At 24 hours after the final administration, the mice in the highest dose group in which all the animals were alive were killed by exsanguination under ether anesthesia, and one thigh bone was collected from each animal. After cutting the collected thigh bone at the proximal end, bone marrow cells were washed out with fetal calf serum to a centrifuge tube using a disposable syringe, and after centrifugation (1000 rpm, 5 minutes, HITACHI 05PR-22), a part of the supernatant was discarded to obtain a suspension of bone marrow cells. This suspension was smeared on a slide glass, and then dried followed by methanol fixation to prepare a sample.
The sample was observed by acridine orange staining.
The sample of which frequency of MNPCE exceeds 0.5% was judged positive.
Frequency of MNPCE (%)=(MNPCE number/Observed PCE number)×100

Series [4] can be described thus: Pharmacokinetic study in mice (oral administration). Type of series: in vivo. As to conditions: mouse, serum, 25 mg/kg, male ICR mice, suspension in 0.5% methylcellulose 2.5 mg/mL at 10 mL/kg, 12 hours after administration, HPLC, read-out: serum concentration of the test compound. On the procedure:
The compounds of Examples 2, 4, 5, 12 and 16 were used as test compounds.
A test compound suspended in 0.5% methylcellulose (2.5 mg/mL) was orally administered at 10 mL/kg to male ICR mice (6 week-old, three animals in a group). At 12 hours after the administration, the blood of the mice was collected, and the concentrations of the test compound in the serum were measured by HPLC.

The test system of series [5] is HIV-1 (JRCSF). The experiment in a line: Anti-HIV activity (Test Example 1-1): MaRBLE cells infected with HIV-1 (JRCSF), compound added 2 h after seeding, luciferase readout after 7 days. It is filed as cell-based. Conditions: Human immunodeficiency virus 1, 168 h, 7 days culture, firefly luciferase, virus growth rate, 4 parameter Logistic Model (XLfit 4). On the procedure: as §2, §3
The MaRBLE cells were suspended in RPMI1640 containing 10% FCS (fetal calf serum) and penicillin/streptomycin. After infected with HIV-1 (JRCSF), the cells were seeded on a 96-well plate (1×10^5 cells/well). As a control group, the same number of uninfected cells were seeded.
After incubating the plate under the condition of 37° C. and 5% CO2 for 2 hours, a fresh culture medium or a culture medium containing an appropriately diluted test compound was added to each well.
After further culturing at 37° C. under 5% CO2 for 7 days, an intracellular luciferase activity was measured using Dual-Glo Luciferase assay system (Promega).
as §4, §5, §6, §7
The IC50 of the compound was calculated by applying virus growth rates of various concentrations to 4 parameter Logistic Model of curve-fitting software XLfit 4.

Some results are limits rather than exact numbers.

These results are taken from patent US20130005760A1, “HETEROCYCLIC COMPOUND HAVING AZOLE GROUP” (Toyama Chemical Co., Ltd., priority 2010, published 2013).

One may read the IC50 as the concentration that gives 50% inhibition. Higher therefore signals weaker potency.

Consider `Cc1noc(C)c1-c1ccc2c(=O)cc(C)n(-c3cc(N)c(F)c(F)c3F)c2n1` [Example 12, 1-(5-amino-2,3,4-trifluorophenyl)-7-(3,5-dimethylisoxazol-4-yl)-2-methyl-1,4-dihydro-4-oxo-1,8-naphthyridine], for which the “dose at which the compound showed good safety (single oral dose)” value (shortened to “dose”) in series [1] is 1000 mg/kg. Besides, inhibition in the series with HIV-1 (JRCSF) [2] was half-maximal at 1.9 nM (IC50). Besides, the “micronucleus test result (frequency of MNPCE exceeding 0.5% judged positive)” value in series [3] is on record as “negative”. Besides, the concentration at 12 h in series [4] is no less than 500 ng/mL.

As for `Cc1noc(C)c1-c1ccc2c(=O)cc(C)n(-c3cc(N)c(F)cc3F)c2n1` [Example 4, 1-(5-amino-2,4-difluorophenyl)-7-(3,5-dimethylisoxazol-4-yl)-2-methyl-1,4-dihydro-4-oxo-1,8-naphthyridine], the “dose” value in series [1] was determined as 750 mg/kg. For the same molecule, 0.38 nM corresponded to half-maximal inhibition in the series on HIV-1 (JRCSF) [5] (IC50). Also, in series [3], the “micronucleus test result (frequency of MNPCE exceeding 0.5% judged positive)” value was “negative”. Besides, the concentration at 12 h in series [4] was no less than 500 ng/mL.

On to `Cc1noc(C)c1-c1ccc2c(=O)cc(C)n(-c3cc(N)c(F)cc3F)c2c1` [Example 2, 1-(5-amino-2,4-difluorophenyl)-7-(3,5-dimethylisoxazol-4-yl)-2-methyl-1,4-dihydro-4-oxoquinoline], for which the “dose” value in series [1] worked out at 2000 mg/kg. Further, the IC50 in the series with HIV-1 (JRCSF) [5] stood at 1.4 nM. For the same molecule, the “micronucleus test result (frequency of MNPCE exceeding 0.5% judged positive)” value in series [3] is reported as “negative”. In addition, the concentration at 12 h in series [4] is no less than 500 ng/mL.
